For series [1], the target named is T1, Angiopoietin-1 receptor (Homo sapiens, UniProt Q02763). Briefly: Inhibition of Tie2 after 90 mins by HTRF assay. (TR-FRET usually uses a lanthanide donor and a delayed reading to cut background.)
Series [2] addresses T2, Vascular endothelial growth factor receptor 2 (Homo sapiens, UniProt P35968). Briefly: Inhibition of KDR after 90 mins by HTRF assay.
Series [3] deals with T1, Angiopoietin-1 receptor. Briefly: Inhibition of Tie2 autophosphorylation in EA.hy926 cells after […]. It is filed as cell-based.
The nature of series [4]: Clearance in Sprague-Dawley rat at 2 mg/kg, iv. It is filed as ADME, organism-based. Set-up: dose 2 mg/kg, route intravenous. Particulars: in vivo.
Series [5] has as its target T2, Vascular endothelial growth factor receptor 2. Kind of series: Inhibition of KDR autophosphorylation in EA.hy926 cells after […]. It is filed as cell-based.
Series [6] can be described thus: Half life in Sprague-Dawley rat at 2 mg/kg, iv. The series is classed as ADME, organism-based. Also on record: dose 2 mg/kg, route intravenous. As to conditions: in vivo.
Series [7] is described as follows: Mean residence time in Sprague-Dawley rat. It is filed as ADME, organism-based. As to conditions: in vivo.
The target of series [8] is T3, Mitogen-activated protein kinase 14 (Homo sapiens, UniProt Q16539). Kind of series: Inhibition of p38-alpha by radioactive filtration assay.
T3 sequence (Q16539 whole entry): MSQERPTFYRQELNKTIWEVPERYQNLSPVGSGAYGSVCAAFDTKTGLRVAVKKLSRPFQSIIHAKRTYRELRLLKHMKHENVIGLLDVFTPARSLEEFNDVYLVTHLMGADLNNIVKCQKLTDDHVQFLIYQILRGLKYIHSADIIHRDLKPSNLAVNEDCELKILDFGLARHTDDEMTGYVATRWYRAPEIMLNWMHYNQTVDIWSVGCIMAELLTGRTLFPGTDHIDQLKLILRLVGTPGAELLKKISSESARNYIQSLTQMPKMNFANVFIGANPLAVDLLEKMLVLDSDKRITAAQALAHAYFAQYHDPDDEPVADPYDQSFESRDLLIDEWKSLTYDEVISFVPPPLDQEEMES
In series [9] the target is Tyrosine-protein kinase Lck (Homo sapiens, UniProt P06239). Kind of series: Inhibition of Lck by radioactive filtration assay.
Tyrosine-protein kinase Lck, sequence (P06239 whole entry): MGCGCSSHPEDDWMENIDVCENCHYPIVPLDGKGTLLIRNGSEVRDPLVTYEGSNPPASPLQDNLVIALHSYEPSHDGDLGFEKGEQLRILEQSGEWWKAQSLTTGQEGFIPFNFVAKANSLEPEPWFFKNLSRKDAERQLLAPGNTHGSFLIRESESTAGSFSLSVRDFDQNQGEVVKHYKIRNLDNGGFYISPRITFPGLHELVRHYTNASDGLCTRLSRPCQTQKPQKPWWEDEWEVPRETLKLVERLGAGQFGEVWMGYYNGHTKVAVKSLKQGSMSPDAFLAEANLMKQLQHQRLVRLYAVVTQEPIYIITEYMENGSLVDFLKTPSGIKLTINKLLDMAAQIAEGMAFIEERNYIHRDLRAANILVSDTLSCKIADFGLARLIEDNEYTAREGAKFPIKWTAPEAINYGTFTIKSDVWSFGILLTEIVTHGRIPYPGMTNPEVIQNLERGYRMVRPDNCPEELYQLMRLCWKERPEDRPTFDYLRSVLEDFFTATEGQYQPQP
For series [10], the target named is Tyrosine-protein kinase JAK2 (Homo sapiens, UniProt O60674). Briefly: Inhibition of Jak2 by radioactive filtration assay.
Series [11] has as its target Proto-oncogene tyrosine-protein kinase Src (Homo sapiens, UniProt P12931). Kind of series: Inhibition of Src by radioactive filtration assay.
For series [12], the target named is Fibroblast growth factor receptor (Homo sapiens, UniProt P22607+P11362+P22455+P21802). Kind of series: Inhibition of FGFR by radioactive filtration assay. It is filed as protein assay.
Series [13] addresses Mast/stem cell growth factor receptor Kit (Homo sapiens, UniProt P10721). Briefly: Inhibition of cKit by radioactive filtration assay.
In series [14] the target is Mitogen-activated protein kinase 10 (Homo sapiens, UniProt P53779). Kind of series: Inhibition of JNK3 by radioactive filtration assay.
Mitogen-activated protein kinase 10, sequence (P53779 whole entry): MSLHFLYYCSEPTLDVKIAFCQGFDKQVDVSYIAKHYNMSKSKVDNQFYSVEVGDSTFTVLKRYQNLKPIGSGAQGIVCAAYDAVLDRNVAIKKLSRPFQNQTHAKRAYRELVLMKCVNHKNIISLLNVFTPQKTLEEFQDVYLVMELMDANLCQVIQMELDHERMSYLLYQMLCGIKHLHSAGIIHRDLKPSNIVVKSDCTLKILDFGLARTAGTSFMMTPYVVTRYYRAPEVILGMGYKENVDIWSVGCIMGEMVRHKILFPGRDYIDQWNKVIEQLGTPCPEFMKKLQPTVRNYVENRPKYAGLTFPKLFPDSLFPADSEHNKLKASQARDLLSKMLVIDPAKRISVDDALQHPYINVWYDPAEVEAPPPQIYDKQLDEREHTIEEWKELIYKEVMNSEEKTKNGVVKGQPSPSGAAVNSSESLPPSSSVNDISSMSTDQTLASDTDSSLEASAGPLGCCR
Series [15] can be described thus: Volume of distribution in Sprague-Dawley rat at 2 mg/kg, iv. As to conditions: in vivo, read-out: Vdss. Also on record: dose 2 mg/kg, route intravenous. It is filed as ADME, organism-based.
Series [16] in a line: Oral bioavailability in Sprague-Dawley rat at 10 mg/kg, po. As to conditions: in vivo. The series is classed as ADME, organism-based.
Series [17] can be described thus: Cmax in Sprague-Dawley rat at 10 mg/kg, po. The series is classed as ADME, organism-based. Also on record: dose 10 mg/kg, route oral. Particulars: in vivo.
The nature of series [18]: AUC (0 to infinity) in Sprague-Dawley rat at 10 mg/kg, po. Particulars: plasma. Set-up: time infinity, dose 10 mg/kg, route oral. It is filed as ADME, organism-based.
The nature of series [19]: Solubility in 0.01 N HCl at pH 2.0. It is filed as physicochemical.
Series [20] in a line: Solubility in phosphate buffer at pH 7.1. The series is classed as physicochemical.
Series [21] addresses T3, Mitogen-activated protein kinase 14. Kind of series: Inhibition of p38-alpha in THP1 cells assessed as TNFalpha levels. It is filed as cell-based, THP-1.
Series [22] concerns the target Vascular endothelial growth factor receptor 2 and tyrosine-protein kinase TIE-2 (KDR and TIE2) (Homo sapiens) (UniProt P35968+Q02763). Kind of series: Selectivity for Tie2 over KDR in cell based autophosphorylation assay.

For orientation: IC50 means the concentration that inhibits the measured activity by half. What is called clearance is the rate of elimination divided by the concentration. Low values mean inefficient removal, high ones efficient removal. The term half-life denotes the time needed for the level to fall by half in the phase considered. A low value points to rapid decline. In general, MRT refers to a mean duration of stay, worked out from the concentration-time curve. What is called bioavailability is dose-corrected exposure relative to a reference, in per cent. Read a high bioavailability as good availability. The Cmax is the peak of the concentration-time curve. The AUC(0-inf) is the area under the concentration-time curve extrapolated to infinity. High values mean more exposure, low ones less exposure. What is called solubility is the concentration that dissolves in the medium under given conditions.

The structures appear in SMILES notation. ≈ marks a conversion by molar mass, not a printed value.

T1 sequence (Q02763 whole entry): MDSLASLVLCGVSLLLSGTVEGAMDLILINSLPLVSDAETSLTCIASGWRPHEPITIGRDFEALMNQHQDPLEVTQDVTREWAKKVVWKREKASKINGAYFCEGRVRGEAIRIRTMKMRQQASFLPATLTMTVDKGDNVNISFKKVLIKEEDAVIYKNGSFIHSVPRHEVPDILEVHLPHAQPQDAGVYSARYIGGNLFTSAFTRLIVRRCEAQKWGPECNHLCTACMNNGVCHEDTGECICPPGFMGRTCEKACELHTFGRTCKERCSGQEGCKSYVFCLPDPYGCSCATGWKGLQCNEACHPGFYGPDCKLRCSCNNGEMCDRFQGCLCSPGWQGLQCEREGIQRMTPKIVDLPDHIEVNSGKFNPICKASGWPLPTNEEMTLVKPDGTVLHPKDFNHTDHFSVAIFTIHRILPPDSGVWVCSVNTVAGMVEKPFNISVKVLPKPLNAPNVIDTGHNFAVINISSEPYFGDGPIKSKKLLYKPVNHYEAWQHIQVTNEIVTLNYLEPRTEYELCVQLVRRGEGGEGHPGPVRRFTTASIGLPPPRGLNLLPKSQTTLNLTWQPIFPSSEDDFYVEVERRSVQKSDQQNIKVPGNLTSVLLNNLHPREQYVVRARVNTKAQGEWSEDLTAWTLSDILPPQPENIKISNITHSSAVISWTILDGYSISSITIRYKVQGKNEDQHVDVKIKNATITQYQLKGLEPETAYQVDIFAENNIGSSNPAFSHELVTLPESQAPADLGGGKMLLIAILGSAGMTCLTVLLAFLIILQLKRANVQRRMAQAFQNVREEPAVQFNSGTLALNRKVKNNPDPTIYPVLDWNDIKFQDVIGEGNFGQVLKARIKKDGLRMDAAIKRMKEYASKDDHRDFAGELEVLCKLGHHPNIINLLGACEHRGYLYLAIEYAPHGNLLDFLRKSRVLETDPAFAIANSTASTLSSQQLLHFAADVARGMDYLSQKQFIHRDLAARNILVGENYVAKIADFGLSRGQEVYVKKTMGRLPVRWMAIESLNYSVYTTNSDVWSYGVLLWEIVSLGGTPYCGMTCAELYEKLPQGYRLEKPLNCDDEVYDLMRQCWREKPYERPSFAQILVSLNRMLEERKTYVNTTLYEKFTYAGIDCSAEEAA
T2 sequence (P35968 whole entry): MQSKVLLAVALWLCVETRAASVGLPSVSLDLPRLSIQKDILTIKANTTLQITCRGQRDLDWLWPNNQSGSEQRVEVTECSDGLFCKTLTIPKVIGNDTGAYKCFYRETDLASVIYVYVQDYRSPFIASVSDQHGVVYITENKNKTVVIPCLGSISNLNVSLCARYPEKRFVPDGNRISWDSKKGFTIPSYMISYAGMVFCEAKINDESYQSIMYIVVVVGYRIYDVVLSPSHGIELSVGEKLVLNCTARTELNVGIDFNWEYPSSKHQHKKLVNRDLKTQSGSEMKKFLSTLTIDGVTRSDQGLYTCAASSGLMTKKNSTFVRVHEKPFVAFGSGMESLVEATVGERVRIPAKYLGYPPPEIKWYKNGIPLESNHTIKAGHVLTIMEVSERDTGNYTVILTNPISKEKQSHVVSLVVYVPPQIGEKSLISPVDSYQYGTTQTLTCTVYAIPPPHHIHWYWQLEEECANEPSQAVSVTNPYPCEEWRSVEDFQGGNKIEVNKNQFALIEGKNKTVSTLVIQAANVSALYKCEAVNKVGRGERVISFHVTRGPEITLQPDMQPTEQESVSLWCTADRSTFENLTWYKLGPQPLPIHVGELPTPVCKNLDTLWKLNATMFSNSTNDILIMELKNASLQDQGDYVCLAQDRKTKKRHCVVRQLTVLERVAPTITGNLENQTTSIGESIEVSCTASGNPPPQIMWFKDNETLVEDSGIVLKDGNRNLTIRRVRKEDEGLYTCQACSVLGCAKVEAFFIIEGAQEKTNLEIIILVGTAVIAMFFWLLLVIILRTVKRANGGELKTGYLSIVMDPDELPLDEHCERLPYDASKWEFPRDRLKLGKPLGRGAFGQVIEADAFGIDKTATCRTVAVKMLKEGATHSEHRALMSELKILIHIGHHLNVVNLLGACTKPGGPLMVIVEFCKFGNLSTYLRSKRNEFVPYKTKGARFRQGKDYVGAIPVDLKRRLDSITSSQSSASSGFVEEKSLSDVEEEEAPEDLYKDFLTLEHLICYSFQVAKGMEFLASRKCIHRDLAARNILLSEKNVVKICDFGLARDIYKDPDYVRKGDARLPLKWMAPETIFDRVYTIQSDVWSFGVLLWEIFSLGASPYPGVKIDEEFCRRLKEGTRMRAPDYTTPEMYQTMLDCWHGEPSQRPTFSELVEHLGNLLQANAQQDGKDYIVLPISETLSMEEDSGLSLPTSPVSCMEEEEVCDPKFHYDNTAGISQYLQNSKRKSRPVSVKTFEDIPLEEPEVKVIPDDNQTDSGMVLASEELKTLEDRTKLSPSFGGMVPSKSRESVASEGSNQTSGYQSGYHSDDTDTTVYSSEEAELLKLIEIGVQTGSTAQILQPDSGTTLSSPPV
Mast/stem cell growth factor receptor Kit, sequence (P10721 whole entry): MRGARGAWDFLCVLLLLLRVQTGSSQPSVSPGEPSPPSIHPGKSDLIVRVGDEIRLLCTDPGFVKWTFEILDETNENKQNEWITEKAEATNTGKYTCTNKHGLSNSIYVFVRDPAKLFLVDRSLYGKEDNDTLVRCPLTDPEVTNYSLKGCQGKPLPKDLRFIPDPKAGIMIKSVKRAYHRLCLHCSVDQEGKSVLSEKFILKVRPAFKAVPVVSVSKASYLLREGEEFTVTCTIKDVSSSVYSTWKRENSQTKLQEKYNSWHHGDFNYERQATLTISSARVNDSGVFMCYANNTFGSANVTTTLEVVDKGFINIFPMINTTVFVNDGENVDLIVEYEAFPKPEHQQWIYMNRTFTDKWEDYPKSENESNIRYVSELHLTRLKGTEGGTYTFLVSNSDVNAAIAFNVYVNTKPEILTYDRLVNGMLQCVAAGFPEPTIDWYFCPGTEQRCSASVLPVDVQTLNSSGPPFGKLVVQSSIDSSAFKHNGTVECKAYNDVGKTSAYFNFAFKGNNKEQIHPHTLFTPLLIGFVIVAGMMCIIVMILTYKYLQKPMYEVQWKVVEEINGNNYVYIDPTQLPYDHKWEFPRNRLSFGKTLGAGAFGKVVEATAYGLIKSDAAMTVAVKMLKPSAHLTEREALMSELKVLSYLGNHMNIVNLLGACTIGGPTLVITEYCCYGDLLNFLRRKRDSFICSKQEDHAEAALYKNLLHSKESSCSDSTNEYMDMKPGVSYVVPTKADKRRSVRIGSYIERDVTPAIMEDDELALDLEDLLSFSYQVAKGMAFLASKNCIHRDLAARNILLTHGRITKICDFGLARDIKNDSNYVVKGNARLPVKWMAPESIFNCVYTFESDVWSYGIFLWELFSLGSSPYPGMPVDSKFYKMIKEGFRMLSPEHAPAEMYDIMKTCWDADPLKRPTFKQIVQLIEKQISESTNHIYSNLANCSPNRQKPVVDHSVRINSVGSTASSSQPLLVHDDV
Vascular endothelial growth factor receptor 2 and tyrosine-protein kinase TIE-2 (KDR and TIE2) (Homo sapiens), sequence (P35968 whole entry, looked up): as the sequence (P35968 whole entry) above
Vascular endothelial growth factor receptor 2 and tyrosine-protein kinase TIE-2 (KDR and TIE2) (Homo sapiens), sequence (Q02763 whole entry, looked up): as the sequence (Q02763 whole entry) above

With `CNc1ncnc(-c2cccnc2Oc2cc(NC(=O)c3cccc(C(C)C)c3)ccc2C)n1`, the figures for the IC50 in series [1], in series [2] and in series [3] were 0.001 µM, 0.117 µM and 0.005 µM, respectively. The compound also showed a clearance in series [4] of 65.7 mL/min/kg.
For the compound `CNc1cc(-c2cccnc2Oc2cc(NC(=O)c3cccc(OC(F)(F)C(F)F)c3)ccc2C)ccn1`, the IC50 in [1] is 0.009 µM; in series [2], 0.233 µM; in series [3] it was 0.013 µM; in series [5] it was 0.943 µM. This compound gave a clearance in series [4] of 60.7 mL/min/kg.
On the same counts, the results for `CNc1ncnc(-c2cccnc2Oc2cc(NC(=O)c3cccc(OC(F)(F)F)c3)ccc2C)n1` are 0.008 µM, 0.442 µM, 0.015 µM, 0.54 µM and 83 mL/min/kg.
As to `CNc1ncnc(-c2cccnc2Oc2cc(NC(=O)c3cccc(OC(F)(F)C(F)F)c3)ccc2C)n1`, the IC50 in series [1] came to 0.016 µM; in series [2], 1 µM; in [3], 0.033 µM; in [5] it was 4.3 µM; in series [8] it was 0.047 µM; in [9], 0.146 µM. The IC50 amounted to 1.75 µM in series [10]; 2.19 µM in series [11]; 5.36 µM in series [12]; 17.8 µM in series [13]; 40 µM in series [14]; 0.194 µM in [21]. This compound also gave a clearance in [4] of 14.8 mL/min/kg. The compound further gave a half-life in series [6] of 1.7 h. This compound had an MRT in series [7] of 1.5 h. In addition, the Vd in series [15] was determined as 1.31 L/kg. Further, the bioavailability in [16] worked out at 4%. For the same compound, the Cmax in series [17] is 119 ng/mL. This compound came in with an AUC(0-inf) in [18] of 509 ng·h/mL. Besides, the solubility is 21 µg/mL (≈ 39.7 µM) in series [19] and 3 µg/mL (≈ 5.68 µM) in series [20].
`CNc1nccc(-c2cccnc2Oc2cc(C(=O)Nc3cccc(C(C)C)c3)ccc2C)n1`: the IC50 came to 0.013 µM in [1] and 0.038 µM in series [2].
With `CNc1nccc(-c2cccnc2Oc2cc(NC(=O)c3cccc(C(C)C)c3)ccc2C)n1`, the concentration for half-maximal inhibition (IC50) in series [1] and in series [2] was 0.002 µM throughout.
`CNc1cc(-c2cccnc2Oc2cccc(NC(=O)c3cccc(C(C)C)c3)c2)ccn1`: the IC50 in [1] worked out at 0.004 µM; in series [2] it was 0.018 µM.
On the same counts, the results for `CNc1ncnc(-c2cccnc2Oc2cc(NC(=O)c3cccc(C(C)C)c3)cc(C(F)(F)F)c2)n1` are 0.055 µM and 25 µM.
For the compound `CNc1ncnc(-c2cccnc2Oc2cc(C(=O)Nc3cccc(C(C)C)c3)ccc2C)n1`, the values for the 50% inhibitory concentration (IC50) in [1] and in series [2] were 0.001 µM and 0.02 µM, respectively.
On the same counts, the results for `CNc1ncnc(-c2cccnc2Oc2cc(NC(=O)c3cccc(C(F)(F)F)c3)ccc2C)n1` are 0.02 µM and 0.309 µM.
On the same counts, the results for `CNc1cc(-c2cccnc2Oc2ccc(Cl)c(NC(=O)c3cccc(C(C)C)c3)c2)ccn1` are 0.006 µM and 0.009 µM.
As to `CNc1ncnc(-c2cccnc2Oc2cccc(NC(=O)c3cccc(C(C)C)c3)c2)n1`, the results for the IC50 in series [1], in series [2] and in [3] were 0.006 µM, 0.456 µM and 0.085 µM, respectively. The compound also gave a clearance in series [4] of 73.7 mL/min/kg.
`CNc1ncnc(-c2cccnc2Oc2cc(NC(=O)c3cccc(C(C)C)c3)ccc2F)n1`: the IC50 in [1] worked out at 0.004 µM; in [2], 0.128 µM. Besides, the clearance in series [4] was 18.4 mL/min/kg. In series [6], this compound had a half-life of 0.8 h. In addition, the MRT in series [7] amounted to 0.5 h.
`CNc1ncnc(-c2cccnc2Oc2cc(NC(=O)c3cccc(-n4cccc4)c3)ccc2C)n1`: the IC50 in [1] stood at 0.017 µM; in [2], 1.13 µM; in [3], 0.023 µM; in [5] it was 25 µM. In [4], this compound gave a clearance of 63.8 mL/min/kg. The Ratio IC50 in series [22] was > 1000.
On to `CNc1cc(-c2cccnc2Oc2cc(NC(=O)c3cccc(C(C)C)c3)ccc2C)ccn1`, for which the values for the IC50 in series [1], in series [2] and in series [3] were 0.001 µM, 0.018 µM and 0.011 µM, respectively. Moreover, the clearance in series [4] is 54.3 mL/min/kg.
Turning to `Cc1ccc(NC(=O)c2cccc(C(F)(F)F)c2)cc1Nc1ncccc1-c1ccncn1`, it took 0.061 µM to reach half-maximal inhibition in [2] (IC50).
With `CNc1cc(-c2cccnc2Oc2cc(C(=O)Nc3cccc(C(C)C)c3)ccc2C)ccn1`, the IC50 in [1] stood at 0.003 µM; in [2], 0.005 µM.

(Values after ChEMBL document CHEMBL1139197, “Synthesis, structural analysis, and SAR studies of triazine derivatives as potent, selective Tie-2 inhibitors” (Bioorg Med Chem Lett, 2007).)
